In patent US20090209620A1, “Direct Reversal Of The Suppressive Function Of CD4+Regulatory T Cells Via Toll-Like Receptor 8 Signaling” (priority 2005, published 2009):
Entries after “also recorded” stand apart in the source; their conditions may differ. In the oligonucleotide strings, read from the 5' end, every base follows the letter of its sugar. An asterisk marks phosphorothioate; unmarked linkages are phosphodiester. Other units and linkages are bracketed, terminal groups are in braces. A string of capitals states the bases alone. d = 2'-deoxy (DNA)

Tests used:
586mel human tumor cells = assay: Human 586mel tumor model in Rag1-/- mice with adoptive transfer of TIL586 and Treg102 cells; assay type: in vivo; settings: 586mel s.c. day 0; CD8+ TIL586 plus Treg102 cells with oligonucleotide on day 3; n=6 mice per group
Procedure: Human 586mel tumor cells (5×106) in 100 μl of buffered saline were subcutaneously injected into Rag1^−/− mice (lacking T and B cells) or Rag 2 ^−/− γC ^−/− mice (lacking T, B and NK cells) on day 0. Tumor-specific CD8^+ TIL586 cells (2.5×107), which recognize and kill 586mel cells, were injected intravenously on day 3 with or without Treg102 cells (3×106) pretreated with Poly-G10 or Poly-T10. Tumor size was measured with calipers every 2-3 days. Tumor volume was calculated on the basis of two-dimensioned measurements. Tumor growth curves were compared with the Wilcoxon rank-sum test.
The data in FIG. 4A-B confirms that TLR8 serves as a receptor for synthetic guanosine containing oligonucleotides and natural ssRNA40 and ssRNA33 ligands derived from HIV-1 virus, and that its activation in endosomes by synthetic DNA or ssRNA ligands triggers a signaling pathway that can reverse the suppressive function of Treg cells. To study the guanosine containing oligonucleotide induced reversal of Treg cell function in vivo, a human tumor model was established by subcutaneously injecting 586mel human tumor cells into Rag1^−/− (T and B cell deficient) mice. […] Tumor volumes were measured and presented as mean±SD (n=6 mice per group). P value was determined between groups as indicated. […]

Treg102 cells = assay: Proliferation and cytotoxicity of CFSE-labeled Treg cells (FACS); assay type: cell-based, human; settings: 3 days
Procedure: The expression of CD4, CD25 and GITR on Treg cells was determined by FACS analysis after staining with specific antibodies (purchased from R&D Systems and BD Biosciences). To isolate naturally occurring CD4^+ CD25^+ Treg cells, CD4^+ T cells were stained with anti-CD4 and anti-CD25 antibodies conjugated to either PE or FITC. After washing, the cells were sorted by FACSARIA into CD4^+ CD25^+ and CD4^+ CD25^− T cell populations. For experiments with carboxyfluorescein diacetate succinimidyl ester (CFSE)-labeled cells, näive CD4^+ T cells or Treg cells ([…]) were stained with CFSE (4.5 uM) from Molecular Probes at 37° C. for 15 min. After several washes, the labeled cells were cultured in RPMI 1640 containing 10% human AB serum and IL-2 (300 IU/ml). To determine suppression of cell division by Treg cells, unlabeled Treg cells were added to CFSE-labeled näive T cells at an 1:1 ratio in 24-well plates precoated with OKT3 (2 ug/ml) in the presence or absence of CpG-A or Poly-G2 (3 ug/ml). After 3 days in culture, the cells were analyzed by FACS gating on the CFSE-labeled cells.
FIG. 5. […] After 3 days of culture, the proliferative profile was determined by FACS analysis. […]

| Substance | tumor growth / antitumor immunity (586mel human tumor cells) | number of Treg cells (cytotoxicity) (Treg102 cells; presence or absence of CpG-A 3 μg/ml) | proliferation of CFSE-labeled Treg cells (Treg102 cells; with naive T cells, OKT3, IL-2, CpG-A 3 μg/ml) |
| --- | --- | --- | --- |
| Poly-G10: guanosine oligonucleotide with protected phosphorothioate backbone (DNA dG*dG*dG*dG*dG*dG*dG*dG*dG*dG) | enhances antitumor immunity in vivo; also recorded: tumor growth was not detected during the first 42 days |  |  |
| G* GGGGACGATCGTCG* G*G*G*G*G [CpG-A] |  | did not change | do not proliferate |
